Measured values from ChEMBL document CHEMBL3885881, “DrugMatrix”.

Species: Rattus norvegicus
Experiment: DrugMatrix - Regimen: Daily Repeat
Format: toxicity, organism-based, Sprague-Dawley
Design: regimen Daily Repeat, gender Male, age 6-8 weeks
Conditions: in vivo, iv, vehicle 100 % SALINE; for ABSOLUTE BASOPHIL / ABSOLUTE EOSINOPHIL / ABSOLUTE LYMPHOCYTE / ABSOLUTE MONOCYTE / ABSOLUTE SEGMENTED NEUTROPHIL / BASOPHIL / EOSINOPHIL / ERYTHROCYTE COUNT / HEMATOCRIT / LEUKOCYTE COUNT / LYMPHOCYTE / MEAN CORPUSCULAR HEMOGLOBIN / MEAN CORPUSCULAR HEMOGLOBIN CONCENTRATION / MONOCYTE / NEUTROPHIL / NUCLEATED RED BLOOD CELLS / PLATELET COUNT / HEMOGLOBIN: tissue Blood
[1] = 6 mg/kg, 72 h, tissue Plasma, dose level Low, time 3 day
[2] = 6 mg/kg, 120 h, dose level Low, time 5 day
[3] = 6 mg/kg, 120 h, tissue Plasma, dose level Low, time 5 day
[4] = 14 mg/kg, 72 h, dose level High, time 3 day
[5] = 14 mg/kg, 72 h, tissue Plasma, dose level High, time 3 day
[6] = 14 mg/kg, 120 h, dose level High, time 5 day
[7] = 14 mg/kg, 120 h, tissue Plasma, dose level High, time 5 day

CARBOPLATIN
TOTAL PROTEIN [1]: 6.3 G/DL
URIC ACID [1]: 1.1 mg/dL
ABSOLUTE BASOPHIL [2]: 0 CELLS/uL
ABSOLUTE EOSINOPHIL [2]: 0 CELLS/uL
ABSOLUTE LYMPHOCYTE [2]: 10376.67 CELLS/uL
ABSOLUTE MONOCYTE [2]: 36 CELLS/uL
ABSOLUTE SEGMENTED NEUTROPHIL [2]: 287.33 CELLS/uL
BASOPHIL [2]: 0%
EOSINOPHIL [2]: 0%
ERYTHROCYTE COUNT [2]: 5.55 x10E6/uL
HEMATOCRIT [2]: 34.6%
LEUKOCYTE COUNT [2]: 10.7 x10E3/uL
LYMPHOCYTE [2]: 97%
MEAN CORPUSCULAR HEMOGLOBIN [2]: 24.17 pg
MEAN CORPUSCULAR HEMOGLOBIN CONCENTRATION [2]: 38.73 G/DL
MONOCYTE [2]: 0.33%
NEUTROPHIL [2]: 2.67%
NUCLEATED RED BLOOD CELLS [2]: 0.33 /100WBC
PLATELET COUNT [2]: 1189.33 x10E3/uL
ALANINE AMINOTRANSFERASE [3]: 46 u/L
ALKALINE PHOSPHATASE [3]: 366 u/L
ASPARTATE AMINOTRANSFERASE [3]: 90.67 u/L
CARBON DIOXIDE [3]: 29 mmol/L
CHOLESTEROL [3]: 74.67 mg/dL
CREATINE PHOSPHOKINASE [3]: 348 u/L
CREATININE [3]: 0.38 mg/dL
GLUCOSE [3]: 158.33 mg/dL
LACTATE DEHYDROGENASE [3]: 130.67 u/L
LIPASE [3]: 9 u/L
PHOSPHORUS [3]: 10.43 mg/dL
POTASSIUM [3]: 5.45 MEQ/L
TOTAL BILIRUBIN [3]: 0.17 mg/dL
TOTAL PROTEIN [3]: 6.07 G/DL
URIC ACID [3]: 0.87 mg/dL
ABSOLUTE BASOPHIL [4]: 0 CELLS/uL
ABSOLUTE EOSINOPHIL [4]: 14 CELLS/uL
ABSOLUTE LYMPHOCYTE [4]: 7854 CELLS/uL
ABSOLUTE MONOCYTE [4]: 121.33 CELLS/uL
ABSOLUTE SEGMENTED NEUTROPHIL [4]: 410.67 CELLS/uL
BASOPHIL [4]: 0%
EOSINOPHIL [4]: 0.33%
ERYTHROCYTE COUNT [4]: 6.2 x10E6/uL
HEMATOCRIT [4]: 38.03%
HEMOGLOBIN [4]: 15.03 G/DL
LEUKOCYTE COUNT [4]: 8.4 x10E3/uL
LYMPHOCYTE [4]: 94%
MEAN CORPUSCULAR HEMOGLOBIN [4]: 24.43 pg
MEAN CORPUSCULAR HEMOGLOBIN CONCENTRATION [4]: 39.67 G/DL
NEUTROPHIL [4]: 4%
NUCLEATED RED BLOOD CELLS [4]: 1 /100WBC
PLATELET COUNT [4]: 574 x10E3/uL
ALANINE AMINOTRANSFERASE [5]: 46.67 u/L
ALBUMIN [5]: 4.5 G/DL
ALKALINE PHOSPHATASE [5]: 398.67 u/L
ASPARTATE AMINOTRANSFERASE [5]: 94.33 u/L
BLOOD UREA NITROGEN [5]: 15.67 mg/dL
CARBON DIOXIDE [5]: 29.33 mmol/L
CHLORIDE [5]: 97 MEQ/L
CHOLESTEROL [5]: 78.33 mg/dL
CREATINE PHOSPHOKINASE [5]: 381 u/L
CREATININE [5]: 0.22 mg/dL
GLUCOSE [5]: 145.33 mg/dL
LACTATE DEHYDROGENASE [5]: 168.33 u/L
LIPASE [5]: 11 u/L
POTASSIUM [5]: 6.3 MEQ/L
TOTAL BILIRUBIN [5]: 0.23 mg/dL
TOTAL PROTEIN [5]: 6.6 G/DL
URIC ACID [5]: 1.1 mg/dL
ABSOLUTE BASOPHIL [6]: 0 CELLS/uL
ABSOLUTE EOSINOPHIL [6]: 0 CELLS/uL
ABSOLUTE LYMPHOCYTE [6]: 7567 CELLS/uL
ABSOLUTE MONOCYTE [6]: 38.67 CELLS/uL
ABSOLUTE SEGMENTED NEUTROPHIL [6]: 427.67 CELLS/uL
BASOPHIL [6]: 0%
EOSINOPHIL [6]: 0%
ERYTHROCYTE COUNT [6]: 5.69 x10E6/uL
HEMATOCRIT [6]: 34.77%
HEMOGLOBIN [6]: 13.5 G/DL
LEUKOCYTE COUNT [6]: 8.03 x10E3/uL
LYMPHOCYTE [6]: 94.33%
MEAN CORPUSCULAR HEMOGLOBIN CONCENTRATION [6]: 38.83 G/DL
MONOCYTE [6]: 0.33%
NEUTROPHIL [6]: 5.33%
NUCLEATED RED BLOOD CELLS [6]: 0.33 /100WBC
PLATELET COUNT [6]: 1070.33 x10E3/uL
ALANINE AMINOTRANSFERASE [7]: 54 u/L
ALKALINE PHOSPHATASE [7]: 340 u/L
ASPARTATE AMINOTRANSFERASE [7]: 84.33 u/L
BLOOD UREA NITROGEN [7]: 18 mg/dL
CARBON DIOXIDE [7]: 28 mmol/L
CHOLESTEROL [7]: 71.67 mg/dL
CREATINE PHOSPHOKINASE [7]: 378.67 u/L
CREATININE [7]: 0.28 mg/dL
GLUCOSE [7]: 151.67 mg/dL
LACTATE DEHYDROGENASE [7]: 133 u/L
LIPASE [7]: 11.67 u/L
PHOSPHORUS [7]: 10.93 mg/dL
POTASSIUM [7]: 4.99 MEQ/L
TOTAL BILIRUBIN [7]: 0.17 mg/dL
TOTAL PROTEIN [7]: 6.07 G/DL
URIC ACID [7]: 0.83 mg/dL
